Assay [1] concerns the target T1, human adenosine A2a receptors (Homo sapiens, UniProt P29274).
T1 construct: expressed in transfected cells; host or cells: CHO-K1
Nature of the assay: Adenosine A2a receptor cell-based functional assay (cAMP-inducible beta-galactosidase reporter). As to conditions: CHO-K1 cells overexpressing human adenosine A2a receptors; antagonist assay with 50 nM NECA. As for the experimental part:
Nonspecific binding was determined by […] NECA. […] Data was analyzed in Microsoft Excel and GraphPad Prism programs. […] For agonist assay, adenosine A2a receptor agonist NECA was subsequently added and cell incubated at 37° C., 5% CO2 for 5 hrs before stopping reaction. In the case of antagonist assay, cells were incubated with antagonists for 5 minutes at R.T. followed by addition of 50 nM NECA. Cells were then incubated at 37° C., 5% CO2 for 5 hrs before stopping experiments by washing cells with PBS twice. […] Color was allowed to develop at 37° C. for 1 h or until reasonable signal appeared. […] Data was analyzed in Microsoft Excel and GraphPad Prism programs.

The target of the next assay is T2, A1 (Homo sapiens, UniProt P30542).
T2 sequence (P30542 1-326): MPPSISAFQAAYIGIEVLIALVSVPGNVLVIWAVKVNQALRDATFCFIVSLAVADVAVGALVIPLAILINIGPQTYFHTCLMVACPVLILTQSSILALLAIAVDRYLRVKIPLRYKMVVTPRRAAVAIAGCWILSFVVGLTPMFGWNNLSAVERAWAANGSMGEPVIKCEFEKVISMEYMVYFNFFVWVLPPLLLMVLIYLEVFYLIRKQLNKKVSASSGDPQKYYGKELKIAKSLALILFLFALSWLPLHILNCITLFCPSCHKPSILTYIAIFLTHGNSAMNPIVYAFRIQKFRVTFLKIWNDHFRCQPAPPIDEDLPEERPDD
Nature of the assay: A1 cell-based functional assay.

T1 sequence (P29274 whole entry): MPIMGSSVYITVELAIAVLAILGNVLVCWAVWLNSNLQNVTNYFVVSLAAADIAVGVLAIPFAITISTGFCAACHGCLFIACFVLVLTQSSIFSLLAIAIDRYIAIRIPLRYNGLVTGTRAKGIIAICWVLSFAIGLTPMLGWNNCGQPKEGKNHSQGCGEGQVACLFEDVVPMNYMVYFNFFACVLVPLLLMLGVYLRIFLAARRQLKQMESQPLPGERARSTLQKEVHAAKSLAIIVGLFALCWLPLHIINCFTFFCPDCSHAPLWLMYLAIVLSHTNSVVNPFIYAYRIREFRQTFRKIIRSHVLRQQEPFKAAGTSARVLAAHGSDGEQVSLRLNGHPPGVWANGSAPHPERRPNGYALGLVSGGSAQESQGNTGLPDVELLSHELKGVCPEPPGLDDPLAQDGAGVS

On to `Nc1nc(-c2ccccc2)c2c(n1)-c1cc(Cc3cccnc3)ccc1C2=O` [C, 2-Amino-4-phenyl-8-pyridin-3-ylmethyl-indeno[1,2-d]pyrimidin-5-one], for which the Ki is 0.4 nM in assay [1] and 4.4 nM on A1. `CC1CCC(C)N1Cc1ccc2c(c1)-c1nc(N)nc(-c3ccccc3)c1C2=O` (centres unmarked) [B, 2-Amino-8-(2,5-dimethyl-pyrrolidin-1-ylmethyl)-4-phenyl-indeno[1,2-d]pyrimidin-5-one]: the inhibition constant Ki stood at 13.1 nM in assay [1] and 37.3 nM at A1. In the case of `Nc1nc(-c2ccccc2)c2c(n1)-c1cc(OCCN3CCOCC3)ccc1C2=O` [A, 2-Amino-8-(2-morpholin-4-yl-ethoxy)-4-phenyl-indeno[1,2-d]pyrimidin-5-one], the affinity at A1 corresponds to a Ki of 49.6 nM.

Source of the values: patent US20090111804A1, “ARYLINDENOPYRIMIDINES AND THEIR USE AS ADENOSINE A2a” (priority 2007, published 2009).
